{"source": "EPA's ToxValDB 9.5 (doi:10.2903/j.efsa.2013.3213)", "tested_on": "Rattus norvegicus", "conditions": "chronic", "data": [{"smiles": "CCOP(=O)=O.CCOP(=O)=O.CCOP(=O)=O.[Al+3]", "note": "[Fosetyl aluminum]", "values": [{"measurement": "NOAEL", "result": 232, "unit": "mg/kg-day"}]}]}
